Target: T1, human capsaicin receptor (Homo sapiens, UniProt Q8NER1)
T1 construct: transfected with the pBK-CMV expression construct encoding the full length human capsaicin receptor; expressed in transfected cells; host or cells: HEK293, stably transfected with the pBK-CMV construct
T1 sequence (Q8NER1 whole entry): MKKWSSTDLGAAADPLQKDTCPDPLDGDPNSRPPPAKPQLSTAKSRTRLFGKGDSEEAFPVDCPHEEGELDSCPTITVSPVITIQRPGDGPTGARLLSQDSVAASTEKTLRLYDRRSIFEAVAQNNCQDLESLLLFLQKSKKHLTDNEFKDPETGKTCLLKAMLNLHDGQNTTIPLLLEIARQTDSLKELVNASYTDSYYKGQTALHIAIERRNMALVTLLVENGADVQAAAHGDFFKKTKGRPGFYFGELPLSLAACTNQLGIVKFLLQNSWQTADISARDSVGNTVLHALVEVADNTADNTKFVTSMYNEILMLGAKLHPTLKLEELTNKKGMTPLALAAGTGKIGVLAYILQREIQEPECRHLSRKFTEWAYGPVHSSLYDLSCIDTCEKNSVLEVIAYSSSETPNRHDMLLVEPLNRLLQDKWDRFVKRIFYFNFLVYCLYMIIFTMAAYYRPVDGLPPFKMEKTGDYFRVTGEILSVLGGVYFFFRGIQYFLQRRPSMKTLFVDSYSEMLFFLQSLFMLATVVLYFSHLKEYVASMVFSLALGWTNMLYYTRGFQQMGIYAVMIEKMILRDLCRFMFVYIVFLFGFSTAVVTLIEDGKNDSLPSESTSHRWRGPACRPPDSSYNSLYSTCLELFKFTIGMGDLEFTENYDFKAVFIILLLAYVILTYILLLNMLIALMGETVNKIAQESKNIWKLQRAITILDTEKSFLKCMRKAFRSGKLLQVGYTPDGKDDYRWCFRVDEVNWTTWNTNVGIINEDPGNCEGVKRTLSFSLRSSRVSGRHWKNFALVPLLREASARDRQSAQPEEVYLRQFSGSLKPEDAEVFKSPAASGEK
Experiment: Calcium mobilization assay, determination of antagonist activity
Type: cell-based
Conditions: 50% decrease in the fluorescence response of cells expressing human capsaicin receptor exposed to capsaicin
Procedure: A cDNA encoding full length human capsaicin receptor (SEQ ID NO:1, 2 or 3 of U.S. Pat. No. 6,482,611) is subcloned in the plasmid pBK-CMV (Stratagene, La Jolla, Calif.) for recombinant expression in mammalian cells.
Human embryonic kidney (HEK293) cells are transfected with the pBK-CMV expression construct encoding the full length human capsaicin receptor using standard methods. The transfected cells are selected for two weeks in media containing G418 (400 μg/ml) to obtain a pool of stably transfected cells. Independent clones are isolated from this pool by limiting dilution to obtain clonal stable cell lines for use in subsequent experiments.
Cells transfected with expression plasmids (as described in Example 4) and thereby expressing human capsaicin receptor are seeded and grown to 70-90% confluency in FALCON black-walled, clear-bottomed 96-well plates (#3904, BECTON-DICKINSON, Franklin Lakes, N.J.). The culture medium is emptied from the 96 well plates and FLUO-3 AM calcium sensitive dye (Molecular Probes, Eugene, Oreg.) is added to each well (dye solution: 1 mg FLUO-3 AM, 440 μL DMSO and 440 μl 20% pluronic acid in DMSO, diluted 1:250 in Krebs-Ringer HEPES (KRH) buffer (25 mM HEPES, 5 mM KCl, 0.96 mM NaH2PO4, 1 mM MgSO4, 2 mM CaCl2, 5 mM glucose, 1 mM probenecid, pH 7.4), 50 μL diluted solution per well). Plates are covered with aluminum foil and incubated at 37° C. for 1-2 hours in an environment containing 5% CO2. After the incubation, the dye is emptied from the plates, and the cells are washed once with KRH buffer, and resuspended in KRH buffer.
To measure the ability of a test compound to agonize or antagonize a calcium mobilization response in cells expressing capsaicin receptors to capsaicin or other vanilloid agonist, the EC50 of the agonist capsaicin is first determined. An additional 20 μl of KRH buffer and 1 μl DMSO is added to each well of cells, prepared as described above. 100 μl capsaicin in KRH buffer is automatically transferred by the FLIPR instrument to each well. Capsaicin-induced calcium mobilization is monitored using either FLUOROSKAN ASCENT (Labsystems; Franklin, Mass.) or FLIPR (fluorometric imaging plate reader system; Molecular Devices, Sunnyvale, Calif.) instruments. Data obtained between 30 and 60 seconds after agonist application are used to generate an 8-point concentration response curve, with final capsaicin concentrations of 1 nM to 3 μM. KALEIDAGRAPH software (Synergy Software, Reading, Pa.) is used to fit the data to the equation: y=a*(1/(1+(b/x)^c)) to determine the 50% excitatory concentration (EC50) for the response. In this equation, y is the maximum fluorescence signal, x is the concentration of the agonist or antagonist (in this case, capsaicin), a is the Emax, b corresponds to the EC50 value and c is the Hill coefficient. Determination of Agonist Activity
Test compounds are dissolved in DMSO, diluted in 20 μl KRH buffer so that the final concentration of test compounds in the assay well is between 1 μM and 5 μM, and added to cells prepared as described above. The 96 well plates containing prepared cells and test compounds are incubated in the dark, at room temperature for 0.5 to 6 hours. It is important that the incubation not continue beyond 6 hours. Just prior to determining the fluorescence response, 100 μl capsaicin in KRH buffer at twice the EC50 concentration determined as described above is automatically added by the FLIPR instrument to each well of the 96 well plate for a final sample volume of 200 μl and a final capsaicin concentration equal to the EC50. The final concentration of test compounds in the assay wells is between 1 μM and 5 μM. […] The concentration of antagonist required to provide a 50% decrease, relative to the response observed in the presence of capsaicin and without antagonist, is the IC50 for the antagonist, and is preferably below 1 micromolar, 100 nanomolar, 10 nanomolar or 1 nanomolar.
With `COCc1nc2nc(-c3ncccc3C(F)(F)F)ccc2c2c1Oc1cc(C(F)(F)F)ccc1N2` [Compound 1, 6-Methoxymethyl-9-trifluoromethyl-3-(3-trifluoromethyl-pyridin-2-yl)-12H-7-oxa-4,5,12-triaza-benzo[a]anthracene] the IC50 was at most 1000 nM. Molecule `COCc1nc2nc(-c3ncccc3C(F)(F)F)ccc2c2c1Oc1ccc(Cl)cc1N2` [Compound 3, 10-Chloro-6-methoxymethyl-3-(3-trifluoromethyl-pyridin-2-yl)-12H-7-oxa-4,5,12-triaza-benzo[a]anthracene] has an IC50 of at most 1000 nM. `COCc1nc2nc(-c3ncccc3C(F)(F)F)ccc2c2c1Oc1cc(S(C)(=O)=O)ccc1N2` [Compound 4, 9-Methanesulfonyl-6-methoxymethyl-3-(3-trifluoromethyl-pyridin-2-yl)-12H-7-oxa-4,5,12-triaza-benzo[a]anthracene] showed an IC50 of at most 1000 nM. Work on `COCc1nc2nc(-c3ncccc3C(F)(F)F)ccc2c2c1Oc1cc(C(C)(C)C)ccc1N2` [Compound 5, 9-tert-Butyl-6-methoxymethyl-3-(3-trifluoromethyl-pyridin-2-yl)-12H-7-oxa-4,5,12-triaza-benzo[a]anthracene] yielded an IC50 of at most 1000 nM. Molecule `FC(F)(F)c1ccc2c(c1)Oc1c(Cl)nc3nc(-c4ncccc4C(F)(F)F)ccc3c1N2` [Compound 6, 6-Chloro-9-trifluoromethyl-3-(3-trifluoromethyl-pyridin-2-yl)-12H-7-oxa-4,5,12-triaza-benzo[a]anthracene] has an IC50 of at most 1000 nM. `OCc1nc2nc(-c3ncccc3C(F)(F)F)ccc2c2c1Oc1cc(C(F)(F)F)ccc1N2` [Compound 7, [9-Trifluoromethyl-3-(3-trifluoromethyl-pyridin-2-yl)-12H-7-oxa-4,5,12-triaza-benzo[a]anthracen-6-yl]-methanol] gave an IC50 of at most 1000 nM. For `C[C@@H]1CN(Cc2nc3nc(-c4ncccc4C(F)(F)F)ccc3c3c2Oc2cc(C(F)(F)F)ccc2N3)C[C@H](C)O1` [Compound 8, 6-(2,6-Dimethyl-morpholin-4-ylmethyl)-9-trifluoromethyl-3-(3-trifluoromethyl-pyridin-2-yl)-12H-7-oxa-4,5,12-triaza-benzo[a]anthracene (cis)], the IC50 was at most 1000 nM. Molecule `CCCN(CCC)Cc1nc2nc(-c3ncccc3C(F)(F)F)ccc2c2c1Oc1cc(C(F)(F)F)ccc1N2` [Compound 9, Dipropyl-[9-trifluoromethyl-3-(3-trifluoromethyl-pyridin-2-yl)-12H-7-oxa-4,5,12-triaza-benzo[a]anthracen-6-ylmethyl]-amine] has an IC50 of at most 1000 nM. Molecule `Cc1nc2nc(-c3ncccc3C(F)(F)F)ccc2c2c1Oc1cc(C(F)(F)F)ccc1N2` [Compound 10, 6-Methyl-9-trifluoromethyl-3-(3-trifluoromethyl-pyridin-2-yl)-12H-7-oxa-4,5,12-triaza-benzo[a]anthracene] has an IC50 of at most 1000 nM. Work on `FC(F)(F)c1ccc2c(c1)Oc1cnc3nc(-c4ncccc4C(F)(F)F)ccc3c1N2` [Compound 11, 9-Trifluoromethyl-3-(3-trifluoromethyl-pyridin-2-yl)-12H-7-oxa-4,5,12-triaza-benzo[a]anthracene] yielded an IC50 of at most 1000 nM. For `CC(C)COCc1nc2nc(-c3ncccc3C(F)(F)F)ccc2c2c1Oc1cc(C(F)(F)F)ccc1N2` [Compound 12, 6-Isobutoxymethyl-9-trifluoromethyl-3-(3-trifluoromethyl-pyridin-2-yl)-12H-7-oxa-4,5,12-triaza-benzo[a]anthracene], the IC50 was at most 1000 nM. Work on `COCc1nc2nc(-c3ncccc3C(F)(F)F)ccc2c2c1Oc1cc(F)ccc1N2` [Compound 13, 9-Fluoro-6-methoxymethyl-3-(3-trifluoromethyl-pyridin-2-yl)-12H-7-oxa-4,5,12-triaza-benzo[a]anthracene] yielded an IC50 of at most 1000 nM. With `Cc1nc2cc(-c3ncccc3C(F)(F)F)ccc2c2c1Oc1ccccc1N2` [Compound 14, 6-Methyl-3-(3-trifluoromethyl-pyridin-2-yl)-12H-7-oxa-5,12-diaza-benzo[a]anthracene] the IC50 was at most 1000 nM. Work on `COCc1nc2nc(-c3ncccc3C(F)(F)F)ccc2c2[nH]c3ccc(Cl)cc3c(=O)c12` [Compound 15, 9-Chloro-6-methoxymethyl-3-(3-trifluoromethyl-pyridin-2-yl)-12H-4,5,12-triaza-benzo[a]anthracen-7-one] yielded an IC50 of at most 1000 nM. `COCc1nc2nc(-c3ncccc3C(F)(F)F)ccc2c2[nH]c3ccc(Br)cc3c(=O)c12` [Compound 16, 9-Bromo-6-methoxymethyl-3-(3-trifluoromethyl-pyridin-2-yl)-12H-4,5,12-triaza-benzo[a]anthracen-7-one] gave an IC50 of at most 1000 nM. Molecule `COCc1nc2nc(-c3ncccc3C(F)(F)F)ccc2c2c1C(O)c1cc(Br)ccc1N2` (centres unmarked) [Compound 17, 9-Bromo-6-methoxymethyl-3-(3-trifluoromethyl-pyridin-2-yl)-7,12-dihydro-4,5,12-triaza-benzo[a]anthracen-7-ol] has an IC50 of at most 1000 nM.

Target: VR (Homo sapiens, UniProt Q8NER1)
Sequence (Q8NER1 whole entry): as above
Experiment: not given
Conditions: binds to VR with no more than moderate affinity; typical value; cited from earlier work
For `Cl.Cl.Cl.Cl.Cl.Cl.N.N.N.N.N.N.N.N.N.N.N.N.N.N.[O-2].[O-2].[Ru+3].[Ru+3].[Ru+4]` [ruthenium red], the Ki is given as at least 140 µM.
